Molecular target: T1, human A2A adenosine receptor (Homo sapiens, UniProt P29274)
T1 construct: expressed in transfected cells; host or cells: HEK293 or CHO cells
Assay: A2A binding affinity, Method (B): scintillation proximity assay (SPA) with [3H]SCH58261
Settings: membranes of HEK293 or CHO cells expressing the human receptor
Excerpt: Method (A) describes the procedure used to measure A2A binding affinity using radioligand binding. Method (B) describes the procedure used to measure A2A binding affinity using SPA technology. The method used to measure A2B binding affinity is also described below. The method used to determine the A2A IC50 value reported for each compound in the table is indicated next to the reported value. The A2B IC50 value measured using the A2B binding affinity assay is shown in the table next to the compound under the corresponding A2A value.
The A2A receptor affinity binding assay measured the amount of binding of a tritiated ligand with high affinity for the A2A adenosine receptor to membranes made from HEK293 or CHO cells recombinantly expressing the human A2A adenosine receptor, in the presence of varying concentrations of a compound of the invention. The data were generated using either filtration binding or a homogenous scintillation proximity assay (SPA).
Method (B): Measurement of A2A Binding Affinity Using SPA
Binding affinity using SPA was conducted as follows. Test compounds (50 nL) were dispensed into individual wells of a 384-well OptiPlate™ well (Perkin Elmer) by Echo® acoustic liquid transfer (Labcyte). 20 µL of 1.25 nM [^3H] SCH58261 ((7-(2-phenylethyl)-5-amino-2-(2-furyl)-pyrazolo-[4,3-e]-1,2,4-triazolo[1,5-c]pyrimidine)) in DPBS assay buffer (Dulbecco’s phosphate buffered saline without calcium and magnesium, ThermoFisher Scientific, Cat. No. A1285601) supplemented with 10 mM MgCl2 was added. A2A receptor-expressing membranes were incubated with 20 µg/mL adenosine deaminase (Roche, Cat. No. 10 102 105 001) for 15 min at room temperature. The receptor-expressing membranes were then combined with wheat germ agglutinin-coated yttrium silicate SPA beads (GE Healthcare, Cat. No. RPNQ0023) in a ratio of […] (w/w) and incubated for 30 min at room temperature. 30 µL of the membrane/bead mixture (0.25 µg and 25 µg per well respectively) were added to the 384-well OptiPlate™ well. To define total and non-specific binding, wells containing 1% DMSO or 1 µM CGS 15943 (Tocris Bioscience, Cat. No. 1699) respectively were also included in the experiment. The plate was incubated for 1 h at room temperature with agitation. The assay plate was then incubated for an h to allow the beads to settle before data were collected using a TopCount® (Perkin Elmer) scintillation counter. After normalization to total and non-specific binding, the percent effect at each compound concentration was calculated. The plot of percent effect versus the log of compound concentration was analyzed electronically using a 4-parameter logistic fit based on the Levenberg-Marquardt algorithm to generate IC50 values.

T1 sequence (P29274 whole entry): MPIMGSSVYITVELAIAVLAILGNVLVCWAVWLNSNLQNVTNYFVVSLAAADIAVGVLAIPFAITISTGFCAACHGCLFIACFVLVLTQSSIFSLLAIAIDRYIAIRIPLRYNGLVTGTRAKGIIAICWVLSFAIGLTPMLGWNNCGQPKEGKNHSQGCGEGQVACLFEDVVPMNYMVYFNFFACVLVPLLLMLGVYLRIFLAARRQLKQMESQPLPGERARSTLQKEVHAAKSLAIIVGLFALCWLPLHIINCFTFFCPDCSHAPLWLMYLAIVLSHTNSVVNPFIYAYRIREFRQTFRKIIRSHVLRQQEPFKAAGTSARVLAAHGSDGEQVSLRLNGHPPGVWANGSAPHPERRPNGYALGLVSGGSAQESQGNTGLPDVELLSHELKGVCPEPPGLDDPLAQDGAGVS

SMILES	IC50
COc1cccc2c1nc(N)n1nc(CN(C)CCc3ccc(C(F)(F)F)cc3)nc21 [Example 15.13, 7-methoxy-2-((methyl(4-(trifluoromethyl)phenethyl)amino)methyl)-[1,2,4]triazolo[1,5-c]quinazolin-5-amine]	7.9 nM
COCCN(CCc1ccc(C(F)(F)F)cc1)Cc1nc2c3cccc(OC)c3nc(N)n2n1 [Example 15.14, 7-methoxy-2-(((2-methoxyethyl)(4-(trifluoromethyl)phenethyl)amino)methyl)-[1,2,4]triazolo[1,5-c]quinazolin-5-amine]	16.5 nM
CCN(Cc1nc2c3cccc(OC)c3nc(N)n2n1)CC1CCN(c2ncc(F)cn2)CC1 [Example 15.16, 2-((ethyl((1-(5-fluoropyrimidin-2-yl)piperidin-4-yl)methyl)amino)methyl)-7-methoxy-[1,2,4]triazolo[1,5-c]quinazolin-5-amine]	31 nM
COc1cccc2c1nc(N)n1nc(CN(Cc3ccccn3)CC3CC3)nc21 [Example 16.1, 2-(((cyclopropylmethyl)(pyridin-2-ylmethyl)amino)methyl)-7-methoxy-[1,2,4]triazolo[1,5-c]quinazolin-5-amine]	12.8 nM
COc1cccc2c1nc(N)n1nc(CN(Cc3cccc(Br)n3)CC3CC3)nc21 [Example 16.3, 2-((((6-bromopyridin-2-yl)methyl)(cyclopropylmethyl)amino)methyl)-7-methoxy-[1,2,4]triazolo[1,5-c]quinazolin-5-amine]	14.6 nM
COc1cccc2c1nc(N)n1nc(CN(Cc3ccc(N4CCOCC4)nc3)CC3CC3)nc21 [Example 16.4, 2-(((cyclopropylmethyl)((6-morpholinopyridin-3-yl)methyl)amino)methyl)-7-methoxy-[1,2,4]triazolo[1,5-c]quinazolin-5-amine]	10.9 nM
COc1ccc(CN(Cc2nc3c4cccc(OC)c4nc(N)n3n2)CC2CC2)cn1 [Example 16.5, 2-(((cyclopropylmethyl)((6-methoxypyridin-3-yl)methyl)amino)methyl)-7-methoxy-[1,2,4]triazolo[1,5-c]quinazolin-5-amine]	9.2 nM
COc1cccc2c1nc(N)n1nc(CN(Cc3ccc(OC(C)C)nc3)CC3CC3)nc21 [Example 16.7, 2-(((cyclopropylmethyl)((6-isopropoxypyridin-3-yl)methyl)amino)methyl)-7-methoxy-[1,2,4]triazolo[1,5-c]quinazolin-5-amine]	13.5 nM
COc1cccc2c1nc(N)n1nc(CN(Cc3ccc(C(F)(F)F)nc3)CC3CC3)nc21 [Example 16.8, 2-(((cyclopropylmethyl)((6-(trifluoromethyl)pyridin-3-yl)methyl)amino)methyl)-7-methoxy-[1,2,4]triazolo[1,5-c]quinazolin-5-amine]	24.1 nM
COc1cccc2c1nc(N)n1nc(CN(Cc3ncco3)CC3CC3)nc21 [Example 16.11, 2-(((cyclopropylmethyl)(oxazol-2-ylmethyl)amino)methyl)-7-methoxy-[1,2,4]triazolo[1,5-c]quinazolin-5-amine]	9.4 nM
COc1ccc(CN(Cc2nc3c4cccc(OC)c4nc(N)n3n2)CC2CC2)cc1 [Example 16.14, 2-(((cyclopropylmethyl)(4-methoxybenzyl)amino)methyl)-7-methoxy-[1,2,4]triazolo[1,5-c]quinazolin-5-amine]	7.2 nM
COc1cccc2c1nc(N)n1nc(CN(Cc3ccc(C(F)(F)F)cc3)C[C@@H]3CO3)nc21 [Example 18.1, (R)-7-methoxy-2-(((oxiran-2-ylmethyl)(4-(trifluoromethyl)benzyl)amino)methyl)-[1,2,4]triazolo[1,5-c]quinazolin-5-amine]	20.2 nM
COc1cccc2c1nc(N)n1nc(CN(Cc3ccc(C(F)(F)F)cc3)S(C)(=O)=O)nc21 [Example 19.2, N-((5-amino-7-methoxy-[1,2,4]triazolo[1,5-c]quinazolin-2-yl)methyl)-N-(4-(trifluoromethyl)benzyl)methanesulfonamide]	7.5 nM

The next compounds have a lower IC50 than those just listed; values first:

IC50	SMILES
6.6 nM	COCCN(Cc1ccc(C(F)(F)F)cc1)Cc1nc2c3cccc(OC)c3nc(N)n2n1 [Example 15.15, 7-methoxy-2-(((2-methoxyethyl)(4-(trifluoromethyl)benzyl)amino)methyl)-[1,2,4]triazolo[1,5-c]quinazolin-5-amine]
3.2 nM	COc1cccc2c1nc(N)n1nc(CN(Cc3ccc(Br)cc3)CC3CC3)nc21 [Example 15.17, 2-(((4-bromobenzyl)(cyclopropylmethyl)amino)methyl)-7-methoxy-[1,2,4]triazolo[1,5-c]quinazolin-5-amine]
5.3 nM	COc1cccc2c1nc(N)n1nc(CN(Cc3cccnc3)CC3CC3)nc21 [Example 16.2, 2-(((cyclopropylmethyl)(pyridin-3-ylmethyl)amino)methyl)-7-methoxy-[1,2,4]triazolo[1,5-c]quinazolin-5-amine]
6.6 nM	COc1cccc2c1nc(N)n1nc(CN(Cc3ccc(OC4CCCCC4)nc3)CC3CC3)nc21 [Example 16.6, 2-((((6-(cyclohexyloxy)pyridin-3-yl)methyl)(cyclopropylmethyl)amino)methyl)-7-methoxy-[1,2,4]triazolo[1,5-c]quinazolin-5-amine]
5.2 nM	COc1cccc2c1nc(N)n1nc(CN(Cc3ccc(NC(=O)C(C)(C)C)nc3)CC3CC3)nc21 [Example 16.9]
2.3 nM	COc1cccc2c1nc(N)n1nc(CN(Cc3ccnc4[nH]ccc34)CC3CC3)nc21 [Example 16.10, 2-((((1H-pyrrolo[2,3-b]pyridin-4-yl)methyl)(cyclopropylmethyl)amino)methyl)-7-methoxy-[1,2,4]triazolo[1,5-c]quinazolin-5-amine]
5.7 nM	COc1cccc2c1nc(N)n1nc(CN(CC3CC3)C3CN(C(=O)OC(C)(C)C)C3)nc21 [Example 16.12, tert-butyl 3-(((5-amino-7-methoxy-[1,2,4]triazolo[1,5-c]quinazolin-2-yl)methyl)(cyclopropylmethyl)amino)azetidine-1-carboxylate]
2.6 nM	COc1cccc2c1nc(N)n1nc(CN(Cc3ccc(-c4ccccn4)cc3)CC3CC3)nc21 [Example 16.13, 2-(((cyclopropylmethyl)(4-(pyridin-2-yl)benzyl)amino)methyl)-7-methoxy-[1,2,4]triazolo[1,5-c]quinazolin-5-amine]
3.5 nM	COc1cccc(CN(Cc2nc3c4cccc(OC)c4nc(N)n3n2)CC2CC2)c1 [Example 16.15, 2-(((cyclopropylmethyl)(3-methoxybenzyl)amino)methyl)-7-methoxy-[1,2,4]triazolo[1,5-c]quinazolin-5-amine]
3.5 nM	COc1cccc2c1nc(N)n1nc(CN(Cc3cccc4ncccc34)CC3CC3)nc21 [Example 16.16, 2-(((cyclopropylmethyl)(quinolin-5-ylmethyl)amino)methyl)-7-methoxy-[1,2,4]triazolo[1,5-c]quinazolin-5-amine]
4.8 nM	COc1cccc2c1nc(N)n1nc(CN(Cc3ccc(F)c(F)c3F)CC3CC3)nc21 [Example 16.17, 2-(((cyclopropylmethyl)(2,3,4-trifluorobenzyl)amino)methyl)-7-methoxy-[1,2,4]triazolo[1,5-c]quinazolin-5-amine]
2.5 nM	COc1cccc2c1nc(N)n1nc(CN(CC(F)F)CC3CC3)nc21 [Example 17.1, 2-(((cyclopropylmethyl)(2,2-difluoroethyl)amino)methyl)-7-methoxy-[1,2,4]triazolo[1,5-c]quinazolin-5-amine]

Reference: patent publication US20230322785A1, “ADENOSINE A2A AND A2B RECEPTOR DUAL ANTAGONISTS FOR IMMUNO-ONCOLOGY” (Merck Sharp & Dohme LLC, priority 2020, published 2023)
